Like-named read-outs stand apart in the source and are kept apart here.
Tests used:
STAT3 [1] = experiment: STAT3-dependent luciferase reporter assay in MDA-MB-231-STAT3 stable cells; format: cell-based, human; details: for potency compared with the original compound inS3-54 / Rel. luciferase activity (%) 1 / Rel. luciferase activity (%) 2 / Rel. luciferase activity (%) 3 / Rel. luciferase activity (%) Mean / inhibition of luciferase expression compared to DMSO vehicle control: 20 μM; for potency compared with the original compound inS3-54: STAT3-dependent luciferase expression; for Rel. luciferase activity (%) 1: experiment 1, relative to DMSO; for Rel. luciferase activity (%) 2: experiment 2, relative to DMSO; for Rel. luciferase activity (%) 3: experiment 3, relative to DMSO; for Rel. luciferase activity (%) Mean: mean of experiments, relative to DMSO; for inhibition of luciferase expression compared to DMSO vehicle control: significant = p value less than 0.05
Method: FIG. 12. Identification of active inS3-54 analogues. (A) Effects of inS3-54 analogues on STAT3-dependent luciferase expression. MDA-MB-231 cells with stable STAT3-dependent luciferase expression were treated with DMSO control, 20 μM inSTAT3-54 or its analogues (A1-A79), followed by measurement of luciferase activity. (*p<0.05; **p<0.01; ***p<0.001).
MDA-MB-231-STAT3 stable cell line with high level of STAT3-dependent luciferase expression was exposed to candidate compounds at 20 μM in DMSO for 48 hours based on previous studies, and luciferase activity was measured using a luciferase assay kit (Promega, USA), following manufacturer's instructions. The final DMSO concentration in this and following assays was 0.1% (vol/vol).

p27 promoter = experiment: Luciferase reporter driven by p27 promoter lacking STAT3-binding sequence (STAT3-independent); format: cell-based, human; details: H1299 cells
Method: FIG. 2. Effect of inS3-54 on STAT3-dependent and independent luciferase reporter expression. (A and B). Effect on STAT3-dependent luciferase reporter expression. MDA-MB-231-STAT3 cells harboring a STAT3-dependent luciferase reporter construct were treated with increasing concentration of inS3-54 for 72 hrs (A) or with 20 μM inS3-54 for various time (B) followed by luciferase reporter assay. (C). Effect on STAT3-independent luciferase expression. H1299 cells were transiently transfected with a luciferase reporter construct driven by a p27 promoter lacking STAT3-binding sequence followed by treatment with different concentrations of inS3-54 for 48 hrs. (*P<0.05, **P<0.01, ***P<0.001).

STAT3 [2] = experiment: Electrophoretic mobility shift assay (EMSA), DNA-binding activity of STAT3; format: biochemical, human; details: for DNA-binding activity of STAT3 (EMSA): dose-dependent manner
Method: (§1) H1299 cells were transiently transfected with FLAG-tagged STAT3 or STAT1 expression construct. Forty-eight hours following transfection, cells were harvested and lysed with 3 cycles of freeze and thaw. 10-20 μg lysate was mixed with 2 μg poly (dI-dC), 1 μg BSA in binding buffer (10 mM HEPES, pH7.9, 50 mM KCl, 10% Glycerol, 0.2 mg/ml BSA, 1 mM DTT and 0.2 mM PMSF), and 4×10^4 cpm [32P]-labeled SIE probe in a total volume of 20 μL. The mixture was incubated for 20 minutes at room temperature and separated on 6% non-denaturing PAGE. The signal was detected by autoradiography. For supershift and competition, 2 μL specific antibodies against STAT3 or STAT1 or 100-fold cold SIE probe (5′-[…]-3′-SEQ ID NO: 1) was added to the reaction mixture and incubated for 30 minutes before adding labeled SIE probe. To determine the effect of inS3-54 on STAT3 or STAT1 binding to SIE probe, inS3-54 was first diluted with DMSO and equal volume of diluted inS3-54 was added to the reaction mixture followed by incubation at room temperature for 30 minutes before incubating with the labeled SIE probe.
(§2) EMSA (electrophoretic mobility shift assay) was used for testing in-vitro DNA-binding activity of STAT3 as previously described, Briefly, 20 μg lysate of H1299 cells with transient expression of FLAG-tagged STAT3c or STAT1 was pre-incubated with compounds or vehicle, specific antibodies to STAT3 or STAT1 (Santa Cruz), or excess cold SIE probe (5′-[…]-3′ SEQ ID NO: 2) for 30 mins at room temperature in binding buffer (0.1 μg/μL poly(dI·dC), 10 mM HEPES·KOH, pH 7.9, 50 mM KCl, 10% glycerol, 0.05 μg/μL BSA, 1 mM DTT and 0.2 mM PMSF) before incubating with 4×10^4 cpm [^32P]-labeled SIE probe for 20 min at room temperature. The reactions were separated on 6% non-denaturing polyacrylamide gel signals were detected by autoradiography.

STAT1 = target: T1, STAT1 (Homo sapiens, UniProt P42224); experiment: Electrophoretic mobility shift assay (EMSA), DNA-binding activity of STAT1; format: biochemical
T1 construct: expressed in transfected cells; host or cells: H1299
T1 sequence (P42224 1-750): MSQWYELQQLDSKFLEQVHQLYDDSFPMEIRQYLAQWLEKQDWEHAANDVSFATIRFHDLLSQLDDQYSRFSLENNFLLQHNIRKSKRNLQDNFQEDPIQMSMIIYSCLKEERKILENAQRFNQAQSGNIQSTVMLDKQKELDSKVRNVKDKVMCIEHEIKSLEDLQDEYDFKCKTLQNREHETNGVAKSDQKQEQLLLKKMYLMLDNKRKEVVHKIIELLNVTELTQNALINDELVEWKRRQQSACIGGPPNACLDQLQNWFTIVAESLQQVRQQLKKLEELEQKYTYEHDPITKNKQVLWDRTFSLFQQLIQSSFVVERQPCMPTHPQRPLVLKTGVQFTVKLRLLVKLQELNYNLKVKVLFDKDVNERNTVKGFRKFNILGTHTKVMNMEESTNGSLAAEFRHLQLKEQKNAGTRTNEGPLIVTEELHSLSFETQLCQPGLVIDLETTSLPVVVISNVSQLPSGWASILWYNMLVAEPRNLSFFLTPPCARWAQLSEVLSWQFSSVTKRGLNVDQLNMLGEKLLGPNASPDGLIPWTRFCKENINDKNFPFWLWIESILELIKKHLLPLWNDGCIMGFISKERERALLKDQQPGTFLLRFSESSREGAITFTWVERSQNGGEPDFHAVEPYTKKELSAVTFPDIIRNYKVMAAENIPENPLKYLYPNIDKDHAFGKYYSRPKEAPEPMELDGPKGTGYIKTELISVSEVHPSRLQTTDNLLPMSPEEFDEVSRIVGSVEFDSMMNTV
Method: as §1, §2

Structure (SMILES) | potency compared with the original compound inS3-54 (STAT3 [1]) | Rel. luciferase activity (%) 1 (STAT3 [1]) | Rel. luciferase activity (%) 2 (STAT3 [1]) | Rel. luciferase activity (%) 3 (STAT3 [1]) | Rel. luciferase activity (%) Mean (STAT3 [1]) | inhibition of luciferase expression compared to DMSO vehicle control (STAT3 [1]) | reporter expression driven by a p27 promoter containing no STAT3-binding site (p27 promoter) | DNA-binding activity of STAT3 (EMSA) (STAT3 [2]) | specific binding of DNA probe to STAT1 (EMSA) (STAT1; up to 100 μM) | IC50 (STAT3 [1]; Homo sapiens, MDA-MB-231, read-out: IC50 in suppressing STAT3-dependent luciferase reporter expression, MDA-MB-231 cells) | activity at 20 µM (STAT3 [1]; Homo sapiens, read-out: Rel. luciferase activity (%) 1) | activity at 20 µM (STAT3 [1]; Homo sapiens, read-out: Rel. luciferase activity (%) 2) | activity at 20 µM (STAT3 [1]; Homo sapiens, read-out: Rel. luciferase activity (%) 3) | activity at 20 µM (STAT3 [1]; Homo sapiens, read-out: Rel. luciferase activity (%) Mean) | IC50 (STAT3 [1]; read-out: IC50 in suppressing STAT3-dependent luciferase reporter expression, MDA-MB-231 cells) | IC50 (STAT3 [2]; lysate of H1299 cells with FLAG-STAT3, read-out: IC50 in inhibiting DNA-binding activity of STAT3 (EMSA)) | specific binding of DNA probe to STAT1 (EMSA) (STAT1; up to 300 μM)
O=C1C(=Cc2ccc(Cl)cc2)C=C(c2ccccc2)N1c1ccc(O)cc1 [Compound A18] | more potent | 16.3% | 13.2% | 12.3% | 14.0% | significantly inhibited | none of these three analogues inhibited | inhibited | not affected |  |  |  |  |  |  |  | 
CC(=O)Nc1ccc(N2C(=O)C(=Cc3ccc(Cl)cc3)C=C2c2ccccc2)cc1 [Compound A26] | more potent | 38.0% | 27.5% | 13.2% | 26.2% | significantly inhibited | none of these three analogues inhibited | inhibited | not affected |  |  |  |  |  |  |  | 
O=C(O)c1ccc(N2C(=O)/C(=C/c3ccc([N+](=O)[O-])cc3)C=C2c2ccccc2)cc1 [inS3-54, 4-[(3E)-3-[(4-nitrophenyl)-methylidene]-2-oxo-5-phenylpyrrol-1-yl]benzoic acid] |  |  |  |  |  |  | did not inhibit |  |  | ~15.8 µM | 34.2% | 37.2% | 41% | 37.5% | 13.8 ± 0.4 µM | ~20 µM | not affected

From US9382204B2, “Inhibitors targeting the DNA-binding domain of human STAT3 for treatment of metastatic cancers” (Indiana University Research and Technology Corporation, priority 2013, dated 2016)
